Measured values reported in US20260224547A1, “COMPOSITIONS COMPRISING ANATABINE AND USES THEREOF” (Philip Morris Products S.A., priority 2021, published 2026).

System: HEK-293, SH-SY5Y, primary human keratinocytes, THP-1 differentiated with PMA
Assay: Transcriptomics (microarray) after anatabine treatment of 4 cell systems
Format: cell-based
Description: To investigate the signalling pathways triggered by anatabine, 4 cell systems (HEK-293, SH-SY5Y, primary human keratinocytes, THP-1 differentiated with PMA) were treated with 4 concentrations of anatabine (100, 200, 300, 400 μM) for 6 hours, after which transcriptomics measurements were performed.
HEK-293 is a human embryonic kidney cell line devoid of nicotinic receptors. It can be relatively easily transfected and therefore used as a tool to express various subtypes of nicotinic receptors or reporter genes such as NRF2-driven luciferase, which were also used in this study. HEK-293 were seeded in a cell culture medium consisting of EMEM, 10% FBS, 1% NEAA, 1% Sodium Pyruvate and 1% PenStrep. 60,000 cells were seeded per well of a 96-well plate.
SH-SY5Y is a human bone marrow neuroblastoma cell line that has been used by researchers to investigate the potential anti-inflammatory effect of anatabine. SH-SY5Y were seeded in a cell culture medium consisting of 50% EMEM and 50% Ham's F12 nutrient and including 10% FBS, 1% PenStrep and 1% L-glutamine. 15,000 cells were seeded per well of a 96-well plate.
Primary human keratinocytes have been included as a relevant cell system for skin. The batch of keratinocytes was selected in order to have healthy, non-smoker, 20-60 years old, Caucasian donors. The keratinocytes were seeded in a cell culture medium consisting of KGM-Gold Keratinocyte Growth Medium. 17,500 cells were seeded per well of a 96-well plate.
The human leukaemia-derived monocytic cell line THP-1, is the most widely used in vitro model for primary human macrophage investigations. THP-1 cells were seeded in a cell culture medium consisting of RPMI, 10% FBS and 1% PenStrep and in the presence of 40 ng/ml phorbol 12-myristate 13-acetate (PMA). 100,000 cells were seeded per well of a 96-well plate, having a total volume of […] per well. 48 hours later the medium was changed to the same culture medium but without PMA, and the culture was left to rest for 24 h before treatment.
All four cell systems were seeded in 96 well plates at a total volume of 190 μl per well to allow for a 20× compound stimulation with a volume of 10 μL. 24 hours after seeding—or in the case of THP-1, 24 h after changing to non-PMA medium—four cell systems were stimulated with anatabine (prepared at 20× the corresponding target concentration) to obtain a final molar concentration of 100, 200, 300, 400 μM anatabine.
In order to generate the transcriptomics data, the four cell systems were exposed to various concentrations of anatabine (100, 200, 300, 400 μM) for 6 hours. The transcriptome of the cells was analysed by a microarray-based analysis.
The cells were lysed using RLT BUFFER (Qiagen Hilden, Germany) for all cell types except the keratinocytes which were lysed with QIAZOL LYSIS REAGENT (Qiagen). RNA isolation was performed with RNEASY MICRO KIT (Qiagen). RNA quantification was assessed with a NANODROP 1000 (ThermoFisher Waltham, MA, USA) and quality of the total RNA was verified acquiring a profile with a 2100 BIOANALYZER (Agilent Technologies, Santa Clara, CA, USA), requiring an RIN number greater than 6.0. 50 ng of total RNA were processed as described in the TECAN/NUGEN OVATION RNA AMPLIFICATION SYSTEM V2 (Tecan Mannedorf, Switzerland). Human Genome U133 Plus 2.0 array were used for hybridization on a THERMOFISHER OVEN 645, washed on THERMOFISHER GENECHIP™ FLUIDICS STATIONS 450DX (protocol FS450-0004) and scanned on a THERMOFISHER GENECHIP™ SCANNER 3000 7G.
Quality control check of all chips was done with the BIOCONDUCTOR affyPLM R package version 1.64. Following quality control procedures, differential gene expression analysis was performed using the BIOCONDUCTOR LIMMA R package version 3.44.3. Pairwise comparisons at the gene level, called systems response profiles (SRP), were computed by comparing each concentration-treatment with its respective vehicle control. […]

C1=CCC(c2cccnc2)NC1 (racemic) [anatabine, 1,2,3,6-Tetrahydro-2,3′-bipyridine]
Fold Change (ATF3 gene, KEAT, anatabine 100 μM): 0.2106
Fold Change (ATF3 gene, KEAT, anatabine 200 μM): 0.3169
Fold Change (ATF3 gene, KEAT, anatabine 300 μM): 1.893
Fold Change (ATF3 gene, KEAT, anatabine 400 μM): 1.185
Fold Change (ATF3 gene, SHSY5Y, anatabine 100 μM): 0.04701
Fold Change (ATF3 gene, SHSY5Y, anatabine 200 μM): 0.3038
Fold Change (ATF3 gene, SHSY5Y, anatabine 300 μM): 0.6207
Fold Change (ATF3 gene, SHSY5Y, anatabine 400 μM): 1.206
Fold Change (ATF3 gene, THP1, anatabine 100 μM): −0.02648
Fold Change (EEF2K gene, THP1, anatabine 300 μM): −0.3419
Fold Change (EEF2K gene, THP1, anatabine 400 μM): −0.7245
Fold Change (EID3 gene, HEK293, anatabine 100 μM): 0.1833
Fold Change (EID3 gene, HEK293, anatabine 200 μM): 0.5345
Fold Change (EID3 gene, HEK293, anatabine 300 μM): 0.9247
Fold Change (EID3 gene, HEK293, anatabine 400 μM): 0.9528
Fold Change (EID3 gene, KEAT, anatabine 100 μM): 1.694
Fold Change (EID3 gene, KEAT, anatabine 200 μM): 1.995
Fold Change (EID3 gene, KEAT, anatabine 300 μM): 3.641
Fold Change (EID3 gene, KEAT, anatabine 400 μM): 3.12
Fold Change (EID3 gene, SHSY5Y, anatabine 100 μM): 0.2913
Fold Change (EID3 gene, SHSY5Y, anatabine 200 μM): 0.3156
Fold Change (EID3 gene, SHSY5Y, anatabine 300 μM): 0.6868
Fold Change (EID3 gene, SHSY5Y, anatabine 400 μM): 1.05
Fold Change (EID3 gene, THP1, anatabine 100 μM): 0.1121
Fold Change (EID3 gene, THP1, anatabine 200 μM): 0.4679
Fold Change (EID3 gene, THP1, anatabine 300 μM): 0.5698
Fold Change (EID3 gene, THP1, anatabine 400 μM): 1.615
Fold Change (FAM53C gene, HEK293, anatabine 100 μM): 0.3792
Fold Change (FAM53C gene, HEK293, anatabine 200 μM): 0.423
Fold Change (FAM53C gene, HEK293, anatabine 300 μM): 0.6969
Fold Change (FAM53C gene, HEK293, anatabine 400 μM): 0.7367
Fold Change (FAM53C gene, KEAT, anatabine 100 μM): 0.1269
Fold Change (FAM53C gene, KEAT, anatabine 200 μM): 0.2194
Fold Change (FAM53C gene, KEAT, anatabine 300 μM): 1.067
Fold Change (FAM53C gene, KEAT, anatabine 400 μM): 0.6853
Fold Change (FAM53C gene, SHSY5Y, anatabine 100 μM): 0.1212
Fold Change (FAM53C gene, SHSY5Y, anatabine 200 μM): 0.4283
Fold Change (FAM53C gene, SHSY5Y, anatabine 300 μM): 0.5427
Fold Change (FAM53C gene, SHSY5Y, anatabine 400 μM): 0.873
Fold Change (FAM53C gene, THP1, anatabine 100 μM): 0.144
Fold Change (FAM53C gene, THP1, anatabine 200 μM): 0.2515
Fold Change (FAM53C gene, THP1, anatabine 300 μM): 0.6296
Fold Change (FAM53C gene, THP1, anatabine 400 μM): 0.8729
Fold Change (FBXO30 gene, HEK293, anatabine 100 μM): 0.001539
Fold Change (FBXO30 gene, HEK293, anatabine 200 μM): 0.2872
Fold Change (FBXO30 gene, HEK293, anatabine 300 μM): 0.3586
Fold Change (FBXO30 gene, HEK293, anatabine 400 μM): 0.5949
Fold Change (FBXO30 gene, KEAT, anatabine 100 μM): 0.619
Fold Change (FBXO30 gene, KEAT, anatabine 200 μM): 0.8807
Fold Change (FBXO30 gene, KEAT, anatabine 300 μM): 1.832
Fold Change (FBXO30 gene, KEAT, anatabine 400 μM): 1.526
Fold Change (FBXO30 gene, SHSY5Y, anatabine 100 μM): −0.5195
Fold Change (FBXO30 gene, SHSY5Y, anatabine 200 μM): 0.3153
Fold Change (FBXO30 gene, SHSY5Y, anatabine 300 μM): 0.5475
Fold Change (FBXO30 gene, SHSY5Y, anatabine 400 μM): 0.9269
Fold Change (FBXO30 gene, THP1, anatabine 100 μM): 0.002856
Fold Change (FBXO30 gene, THP1, anatabine 200 μM): 0.427
Fold Change (FBXO30 gene, THP1, anatabine 300 μM): 0.6595
Fold Change (FBXO30 gene, THP1, anatabine 400 μM): 1.224
Fold Change (G0S2 gene, HEK293, anatabine 100 μM): −0.159
Fold Change (G0S2 gene, HEK293, anatabine 200 μM): −0.1114
Fold Change (G0S2 gene, HEK293, anatabine 300 μM): −0.6854
Fold Change (G0S2 gene, HEK293, anatabine 400 μM): −0.7292
Fold Change (G0S2 gene, KEAT, anatabine 100 μM): −0.3516
Fold Change (G0S2 gene, KEAT, anatabine 200 μM): −0.5508
Fold Change (G0S2 gene, KEAT, anatabine 300 μM): −1.361
Fold Change (G0S2 gene, KEAT, anatabine 400 μM): −1.016
Fold Change (G0S2 gene, SHSY5Y, anatabine 100 μM): −0.0648
